According to patent US20220089600A1, “TGFß INHIBITOR AND PRODRUGS” (FUNDACIÓ INSTITUT DE RECERCA BIOMÈDICA (IRB BARCELONA), priority 2018, published 2022):
pKd: −log10 of the molar value.

Experiments:
ALK5 (TGFBR1) = molecular target: T1, ALK5 (TGFBR1) (Homo sapiens, UniProt P36897); experiment: KINOMEscan affinity, competition binding
T1 sequence (P36897 34-503): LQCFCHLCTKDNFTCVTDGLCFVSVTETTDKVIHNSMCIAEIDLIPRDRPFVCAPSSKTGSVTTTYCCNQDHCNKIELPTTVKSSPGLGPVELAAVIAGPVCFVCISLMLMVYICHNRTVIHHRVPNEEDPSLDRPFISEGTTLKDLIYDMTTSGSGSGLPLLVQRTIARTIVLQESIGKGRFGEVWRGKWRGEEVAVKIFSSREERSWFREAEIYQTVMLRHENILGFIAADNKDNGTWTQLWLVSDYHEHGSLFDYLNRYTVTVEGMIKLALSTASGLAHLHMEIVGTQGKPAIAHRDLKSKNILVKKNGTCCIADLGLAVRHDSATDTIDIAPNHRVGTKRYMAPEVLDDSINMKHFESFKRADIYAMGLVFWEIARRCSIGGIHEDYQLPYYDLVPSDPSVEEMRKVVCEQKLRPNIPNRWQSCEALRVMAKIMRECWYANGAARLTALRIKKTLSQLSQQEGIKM
Method: (§1) The affinity, measured as Kd (dissociation constants), of the compound of formula I for the ALK family was determined by using the KINOMEscan™ Technology from Eurofins. Selectivity in front of ALK1 (ACVRL1), ALK2 (ACVR1), ALK3 (BMPR1A), ALK4 (ACVR1B), ALK6 (BMPR1B), ACVR2B and TGFβR2 was determined.
(§2) The assay is performed by combining three components: DNA-tagged kinase; immobilized ligand; and a test compound. The ability of the test compound to compete with the immobilized ligand is measured via quantitative PCR of the DNA tag.
(§3) Test compounds were prepared as 111× stocks in 100% DMSO. Kds were determined using an 11-point 3-fold compound dilution series with three DMSO control points being the top concentration 30 μM. […] The compounds were then diluted directly into the assays such that the final concentration of DMSO was 0.9%. All reactions performed in polypropylene 384-well plate. Each was a final volume of 0.02 ml. […] The beads were then re-suspended in elution buffer (1×PBS, 0.05% Tween 20, 0.5 μM non-biotinylated affinity ligand) and incubated at room temperature with shaking for 30 minutes. The kinase concentration in the eluates was measured by qPCR.
(§4) Dissociation constants (Kds) for test compound-kinase interactions are calculated by measuring the amount of kinase captured on the solid support as a function of the test compound concentration.

ALK4 (ACVR1B) = molecular target: T2, ALK4 (ACVR1B) (Homo sapiens, UniProt P36896); experiment: KINOMEscan affinity, competition binding
T2 construct: purchased Eurofins (KINOMEscan service)
Method: as §1, §2, §3, §4

[1] = test system: MTO129 established liver metastases; experiment: Overt metastatic disease model, alone or with anti-PD-1; details: monotherapy
From the text: For this purpose, the protocol of mouse inoculation with MTO129 described for FIG. 13 was used, but here treatment with compounds started at day 16 post-inoculation. At this time point mice had developed large metastases. Treatments finished at day 24. […] In these experiments, the vast majority (>90%) of control mice die of liver metastatic disease.
Mouse tumor organoids (MTO129) were developed as indicated in example 3. C57BL/6J mice were purchased from Janvier at 6 weeks of age and injected at 7-8 weeks. For transplantation of MTO129 into the liver, cells were trypsinized (digesting the matrix and disaggregating organoids into single cells), counted and 300,000 cells were injected in HBSS (Hank's Balanced Salt Solution, Lonza) into the spleen, thus delivering the cells directly into the portal vein that connects the intestine to the liver. […] Treatment with compounds occurred by gavage (tube feeding) and mice were treated twice a day with 150 μl of compound suspension in vehicle. […] Control mice were given gavage vehicle and IgG2a isotype control antibody.
At this time point, mice had developed large liver metastases. Treatments finished at day 24. […] In these experiments, the vast majority (>90%) of control mice die of liver metastatic disease.

panel of 97 proteins = experiment: scanEDGE (KINOMEscan) selectivity panel; type: binding
Method: Using scanEDGE (KINOMEscan, Eurofins) assays, the selectivity of the compound of formula I against a panel of 97 proteins was also measured. The selectivity profile of the compound of formula was good.

ALK3 (BMPR1A) = molecular target: T3, ALK3 (BMPR1A) (Homo sapiens, UniProt P36894); experiment: KINOMEscan affinity, competition binding
T3 construct: purchased Eurofins (KINOMEscan service)
Method: as §1
(§5) The KINOMEscan screening platform employs an active-site directed competition binding assay to quantitatively measure interactions between test compounds and kinases.
as §2, §3
(§6) Compounds that bind the kinase active site and directly (sterically) or indirectly (allosterically) prevent kinase binding to the immobilized ligand, will reduce the amount of kinase captured on the solid support. […] Dissociation constants (Kds) for test compound-kinase interactions are calculated by measuring the amount of kinase captured on the solid support as a function of the test compound concentration.

ALK6 (BMPR1B) = molecular target: T4, ALK6 (BMPR1B) (Homo sapiens, UniProt O00238); experiment: KINOMEscan affinity, competition binding
T4 construct: purchased Eurofins (KINOMEscan service)
Method: as §1, §5, §2, §3, §6

TGFBR2 = molecular target: T5, TGFBR2 (Homo sapiens, UniProt P37173); experiment: KINOMEscan affinity, competition binding
T5 construct: purchased Eurofins (KINOMEscan service)
Method: as §1, §5, §2, §3, §6

ACVR2B = molecular target: T6, ACVR2B (Homo sapiens, UniProt Q13705); experiment: KINOMEscan affinity, competition binding
T6 construct: purchased Eurofins (KINOMEscan service)
Method: as §1, §5, §2, §3, §6

ALK1 (ACVRL1) = molecular target: T7, ALK1 (ACVRL1) (Homo sapiens, UniProt P37023); experiment: KINOMEscan affinity, competition binding
T7 construct: purchased Eurofins (KINOMEscan service)
Method: as §1, §5, §2, §3, §6

human ALK5 = molecular target: T8, human ALK5 (Homo sapiens, UniProt P36897); experiment: KinaseProfiler enzymatic activity inhibition; type: biochemical
T8 construct: purchased Eurofins (Kinase Profiler service)
T8 sequence (P36897 34-503): T1 sequence (P36897 34-503)
Method: Briefly, human ALK5 was incubated with 8 mM MOPS pH 7.0, 0.2 mM EDTA, 1 mM MnCl2, 2 mg/mL casein, 10 mM MgAcetate and [γ-33P-ATP] (specific activity approx. 500 cpm/pmol, concentration as required). The reaction was initiated by the addition of the MgATP mix. After incubation for 40 minutes at room temperature, the reaction was stopped by the addition of a 3% phosphoric acid solution. 10 μL of the reaction was then spotted onto a P30 filtermat and washed three times for 5 minutes in 75 mM phosphoric acid and once in methanol prior to drying and scintillation counting.
Compounds were tested using a 9-point curve with half-Log serial dilutions. The top concentration tested was 10 μM. Test compounds were prepared in 100% DMSO.

T7 sequence (P37023 22-503): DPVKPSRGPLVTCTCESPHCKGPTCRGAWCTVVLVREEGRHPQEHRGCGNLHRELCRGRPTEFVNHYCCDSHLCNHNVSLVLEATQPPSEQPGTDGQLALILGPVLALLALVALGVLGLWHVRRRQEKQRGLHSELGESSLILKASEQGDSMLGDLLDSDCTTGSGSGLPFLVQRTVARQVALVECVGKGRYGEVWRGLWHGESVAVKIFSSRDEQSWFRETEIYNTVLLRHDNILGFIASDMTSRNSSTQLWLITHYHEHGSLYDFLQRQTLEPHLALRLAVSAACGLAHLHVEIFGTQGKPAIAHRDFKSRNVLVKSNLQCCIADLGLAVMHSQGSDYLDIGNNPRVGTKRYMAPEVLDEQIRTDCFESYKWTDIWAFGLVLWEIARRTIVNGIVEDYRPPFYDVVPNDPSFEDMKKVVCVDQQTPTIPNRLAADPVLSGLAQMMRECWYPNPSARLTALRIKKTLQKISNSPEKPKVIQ
T5 sequence (P37173 23-567): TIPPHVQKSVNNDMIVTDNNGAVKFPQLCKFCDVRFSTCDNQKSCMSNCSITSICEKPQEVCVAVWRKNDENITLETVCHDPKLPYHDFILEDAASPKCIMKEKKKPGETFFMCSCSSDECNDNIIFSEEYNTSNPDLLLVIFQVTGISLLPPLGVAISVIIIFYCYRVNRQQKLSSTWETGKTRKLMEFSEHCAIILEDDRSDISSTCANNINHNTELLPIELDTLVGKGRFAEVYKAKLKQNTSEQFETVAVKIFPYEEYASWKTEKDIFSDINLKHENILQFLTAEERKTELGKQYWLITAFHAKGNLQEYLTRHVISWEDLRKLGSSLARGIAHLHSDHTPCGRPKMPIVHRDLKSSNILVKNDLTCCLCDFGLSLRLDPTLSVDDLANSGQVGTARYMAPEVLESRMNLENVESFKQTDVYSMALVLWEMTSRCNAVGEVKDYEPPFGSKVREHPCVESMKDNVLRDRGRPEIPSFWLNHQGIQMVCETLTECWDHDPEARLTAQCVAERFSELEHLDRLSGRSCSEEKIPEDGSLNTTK
T3 sequence (P36894 24-532): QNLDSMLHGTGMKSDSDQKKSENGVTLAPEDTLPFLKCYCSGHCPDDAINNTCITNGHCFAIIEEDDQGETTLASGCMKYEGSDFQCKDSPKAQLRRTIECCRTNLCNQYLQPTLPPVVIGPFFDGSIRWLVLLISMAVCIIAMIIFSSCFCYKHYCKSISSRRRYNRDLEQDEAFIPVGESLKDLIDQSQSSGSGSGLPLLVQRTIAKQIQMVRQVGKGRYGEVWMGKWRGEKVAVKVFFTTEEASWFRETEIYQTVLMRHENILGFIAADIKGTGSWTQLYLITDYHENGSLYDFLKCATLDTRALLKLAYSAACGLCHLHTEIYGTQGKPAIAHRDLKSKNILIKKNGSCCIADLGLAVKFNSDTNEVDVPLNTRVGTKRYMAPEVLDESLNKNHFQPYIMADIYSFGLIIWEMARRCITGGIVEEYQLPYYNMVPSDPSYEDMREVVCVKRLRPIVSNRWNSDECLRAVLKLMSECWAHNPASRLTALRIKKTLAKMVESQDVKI
T4 sequence (O00238 14-502): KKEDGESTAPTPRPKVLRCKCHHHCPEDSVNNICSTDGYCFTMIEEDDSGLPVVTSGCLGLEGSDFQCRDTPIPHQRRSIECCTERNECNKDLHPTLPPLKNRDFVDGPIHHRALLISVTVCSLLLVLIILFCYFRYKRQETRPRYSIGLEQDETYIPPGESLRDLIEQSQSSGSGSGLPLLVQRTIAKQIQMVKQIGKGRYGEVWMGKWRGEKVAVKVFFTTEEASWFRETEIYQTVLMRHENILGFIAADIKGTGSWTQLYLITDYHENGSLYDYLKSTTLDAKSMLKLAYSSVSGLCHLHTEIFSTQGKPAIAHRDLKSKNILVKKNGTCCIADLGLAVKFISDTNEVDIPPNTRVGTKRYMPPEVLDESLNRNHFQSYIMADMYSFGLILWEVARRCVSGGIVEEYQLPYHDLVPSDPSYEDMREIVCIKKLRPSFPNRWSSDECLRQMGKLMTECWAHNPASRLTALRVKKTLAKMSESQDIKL
T6 sequence (Q13705 19-512): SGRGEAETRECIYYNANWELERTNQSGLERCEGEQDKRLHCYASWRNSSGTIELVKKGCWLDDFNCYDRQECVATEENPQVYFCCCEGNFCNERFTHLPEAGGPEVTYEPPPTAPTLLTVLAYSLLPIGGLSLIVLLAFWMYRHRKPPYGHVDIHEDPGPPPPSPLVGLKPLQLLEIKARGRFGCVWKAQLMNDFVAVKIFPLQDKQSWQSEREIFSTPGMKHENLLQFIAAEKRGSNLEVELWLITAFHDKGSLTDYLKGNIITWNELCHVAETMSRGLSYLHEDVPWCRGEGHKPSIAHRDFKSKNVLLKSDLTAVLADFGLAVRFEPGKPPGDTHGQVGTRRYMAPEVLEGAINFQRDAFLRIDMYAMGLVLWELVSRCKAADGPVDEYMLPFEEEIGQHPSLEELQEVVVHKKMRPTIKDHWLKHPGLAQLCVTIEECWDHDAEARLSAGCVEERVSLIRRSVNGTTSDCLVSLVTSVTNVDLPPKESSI
T2 sequence (P36896 24-505): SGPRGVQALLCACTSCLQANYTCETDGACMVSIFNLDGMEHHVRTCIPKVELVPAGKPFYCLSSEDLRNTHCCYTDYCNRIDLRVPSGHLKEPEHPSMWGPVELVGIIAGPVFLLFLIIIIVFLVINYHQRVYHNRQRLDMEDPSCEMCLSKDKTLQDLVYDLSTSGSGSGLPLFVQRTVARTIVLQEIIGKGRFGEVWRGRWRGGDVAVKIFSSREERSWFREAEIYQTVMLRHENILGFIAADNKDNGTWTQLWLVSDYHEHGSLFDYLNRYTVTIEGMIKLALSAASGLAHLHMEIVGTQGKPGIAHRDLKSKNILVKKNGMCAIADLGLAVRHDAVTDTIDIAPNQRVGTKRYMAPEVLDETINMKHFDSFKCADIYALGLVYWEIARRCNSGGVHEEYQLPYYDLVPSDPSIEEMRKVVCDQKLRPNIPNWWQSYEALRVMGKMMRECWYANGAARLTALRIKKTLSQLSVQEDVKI

In the case of `Cc1cccc(-c2nn3c(c2-c2ccnc4ccc(O)cc24)CCC3)n1` [compound of formula I, 4-(2-(6-methylpyridin-2-yl)-5,6-dihydro-4H-pyrrolo[1,2-b]pyrazol-3-yl)quinolin-6-ol], the “Selectivity against ALK5” value (ALK5 (TGFBR1); ALK5 versus ALK5) was 1, the pKd (ALK5 (TGFBR1); KINOMEscan) was 7.70 and the “ALK5 binding affinity, times higher than Galunisertib” value (ALK5 (TGFBR1); versus published galunisertib data) was 8.6 times. For the same compound, the Selectivity improvement (ALK4 (ACVR1B); (I) versus Galunisertib) was 1.4, the “Selectivity against ALK5” value (ALK4 (ACVR1B); ALK4 versus ALK5) was 0.7 and the “efficacy at reducing the number of liver metastasis compared to galunisertib” value ([1]; FIG. 14, 1× equimolar doses) was “improved efficacy”. The “survival rates compared to galunisertib” value ([1]; FIG. 15, 1× equimolar doses) was “higher survival rates”, the selectivity profile (panel of 97 proteins) was “good” and the Selectivity improvement (ALK3 (BMPR1A); (I) versus Galunisertib) was 3.5. The “Selectivity against ALK5” value (ALK3 (BMPR1A); ALK3 versus ALK5) was 345, the “selectivity for ALK5 against ALK3” value (ALK3 (BMPR1A); KINOMEscan) was “greater than 300 fold” and the Selectivity improvement (ALK6 (BMPR1B); (I) versus Galunisertib) was 2.9. The “Selectivity against ALK5” value (ALK6 (BMPR1B); ALK6 versus ALK5) was 8.0, the “selectivity for ALK5 against ALK6” value (ALK6 (BMPR1B); KINOMEscan) was 8 fold and the Selectivity improvement (TGFBR2; (I) versus Galunisertib) was 83. The “selectivity for ALK5 against TGFBR2” value (TGFBR2; KINOMEscan) was 100 fold, the “Selectivity against ALK5” value (TGFBR2; TGFBR2 versus ALK5) was 100 and the Selectivity improvement (ACVR2B; (I) versus Galunisertib) was 1.2. The “Selectivity against ALK5” value (ACVR2B; ACVR2B versus ALK5) was 5.0, the “selectivity for ALK5 against ACVR2B” value (ACVR2B; KINOMEscan) was 5 fold and the Selectivity improvement (ALK1 (ACVRL1); (I) versus Galunisertib) was 3.8. The “Selectivity against ALK5” value (ALK1 (ACVRL1); ALK1 versus ALK5) was 550, the “selectivity for ALK5 against ALK1” value (ALK1 (ACVRL1); KINOMEscan) was “greater than 300 fold” and the IC50 (human ALK5; KinaseProfiler, 9-point curve, top 10 μM, read-out: Enzyme activity inhibition IC50 (nM) ALK5 (TGFBR1)) was 177 nM. For the same compound, the “ALK5 enzymatic potency, times more potent than prodrug of formula (III)” value (human ALK5; from Table 2) was 4.7 times, the “ALK5 enzymatic potency, times more potent than prodrug of formula (IV)” value (human ALK5; from Table 2) was 12.9 times and the “ALK5 enzymatic potency, times more potent than reference compound 337” value (human ALK5; from Table 2) was 1.8 times. The “ALK5 enzymatic potency, times more potent than reference compound 338” value (human ALK5; from Table 2) was 2.1 times.
